According to patent US7829578B1, “Aromatic ketones and uses thereof” (Oregon Health & Science University, priority 2005, dated 2010):
Like-named read-outs stand apart in the source and are kept apart here.

Key:
Format in all cases: cell-based
[1] = system: drug susceptible (D6) strain of Plasmodium falciparum; assay: In vitro antimalarial MSF (SyBrGreen I fluorescence) assay, D6 strain
Method: (§1) Four different laboratory strains of P. falciparum were cultured in human erythrocytes by standard methods under a low oxygen atmosphere (5% O2, 5% CO2, 90% N2) in an environmental chamber. The culture medium was RPMI 1640, supplemented with 25 mM Hepes buffer, 25 mg/liter gentamicin sulfate, 45 mg/liter hypoxanthine, 10 mM glucose, 2 mM glutamine, and 0.5% Albumax II (complete medium). The parasites were maintained in fresh human erythrocytes suspended at a 2% hematocrit in complete medium at 37° C. Stock cultures were sub-passaged every 3 to 4 days by transfer of infected red cells to a flask containing complete medium and uninfected erythrocytes.
(§2) In vitro antimalarial activity of the test compounds was assessed by a fluorescence-based method described previously (Smilkstein et al., 2004, Antimicrobial Agents and Chemotherapy, Vol. 48, pgs. 1803-1806) (reference format?). The studies were set up in triplicate in 96 well plates with two-fold dilutions of each test compound across the plate in a total volume of 100 μl and at a final red blood cell concentration of 2% (v/v). Stock solutions of each drug were prepared by dissolving in DMSO at 10 mM. […] In every case, an additional determination was performed to ensure bracketing of the IC50 value by at least an order of magnitude.
(§3) Automated pipeting and dilution was carried out by a programmable Precision 2000 robotic station (Bio-Tek, Winooski, Vt.). An initial parasitemia of 0.2% was attained by addition of normal uninfected red cells to a stock culture of asynchronous parasite infected red cells (PRBC). The plates were incubated for 72 hrs at 37° C. in an atmosphere of 5% CO2, 5% O2, and 90% N2. After this period, the SyBrGreen I dye-detergent mixture (100 μl) was added and the plates were incubated at room temperature for an hour in the dark and then placed in a 96-well fluorescence plate reader (Gemini-EM, […]) for analysis with excitation and emission wavelength bands centered at 497 and 520 nm, respectively.

[2] = system: multi-drug resistant (Dd2) strain of Plasmodium falciparum; assay: In vitro antimalarial MSF (SyBrGreen I fluorescence) assay, Dd2 strain
Method: as §1, §2, §3

[3] = system: Murine splenic lymphocytes; assay: MSLCs-concanavalin A induced proliferation (blastogenesis) cytotoxicity assay, Alamar Blue fluorescence; conditions: Table 2, 24-hr MSLCs-concanavalin A induced proliferation
Method: *Data are the average of at least 3 independent experiments, each performed in triplicate with the aid of a Precision 2000 robotic pipeting station. IC50 values were determined by the MSF assay. […] MSLCs=Murine splenic lymphocytes. Cytotoxicity was determined using a 24-hr MSLCs-concanavalin A induced proliferation assay using the Alamar Blue fluorescence method. IVTI=in vitro therapeutic index calculated from the ratio of IC50 values based on the cytotoxicity observed in the blastogenesis assay and the antimalarial potency against the D6 strain of P. falciparum. NT=not tested.
*Data are the average of at least 3 independent experiments, each performed in triplicate with the aid of a Precision 2000 robotic pipeting station. IC50 values were determined by the MSF assay (Smilkstein et al., AAC, 2004). MSLCs=Murine splenic lymphocytes. Cytotoxicity was determined using a 48-hr MSLCs-concanavalin A induced proliferation assay using the Alamar Blue fluorescence method. IVTI=in vitro therapeutic index calculated from the ratio of IC50 values of the cytotoxicity observed in the blastogenesis assay and antimalarial potency against the D6 strain of P. falciparum. NA=not applicable; ND=not determined.

[4] = system: Murine splenic lymphocytes; assay: as above; conditions: Table 3, 48-hr MSLCs-concanavalin A induced proliferation
[5] = Table 2, MSF assay, 72 hrs, average of at least 3 experiments, read-out: D6 IC50
[6] = Table 2, 72 hrs, average of at least 3 experiments
[7] = Table 3, MSF assay, read-out: D6 IC50
[8] = Plasmodium falciparum, D6, strain not given, read-out: IC50 value of parent compound used for comparison
[9] = Plasmodium falciparum, D6, Table 4, MSF assay, read-out: D6 IC50
[10] = Plasmodium falciparum, D6, Table 3, MSF assay, read-out: D6 IC50
[11] = Mus musculus, Splenic lymphocyte

| Compound | IC50 [1, 5] [nM] | IC50 [2, 6] [nM] | IC50 [3] [nM] | further results |
| --- | --- | --- | --- | --- |
| O=C1C=C(OCCCCC(F)(F)F)C(=O)c2ccccc21 [compound 35] | 32 | 35 | 14000 |  |
| COc1ccc2c(=O)c3ccc(Cl)cc3[nH]c2c1 [compound 13] | 76 | 192 | > 25000 |  |
| O=c1c2ccccc2[nH]c2cc(OCCCCCC(F)(F)F)ccc12 [compound 26] | 0.43 | 0.015 | > 25000 |  |
| CCOC(=O)c1c[nH]c2cc(OCCCCCC(F)(F)F)ccc2c1=O [compound 46] |  |  |  | IC50 [1, 7]: 1.2 nM; IC50 ([2]; Table 3): 1.2 nM; IC50 [4]: > 25000 nM |
| O=C1C=C(OCCCCCC(F)(F)F)C(=O)c2ccccc21 [compound 12] | 67 | 95 | 5600 |  |
| COc1ccc2c(=O)cc(C)[nH]c2c1 [No. 43, 2-methyl-7-methoxy-4-(1H)-quinolone] |  |  |  | IC50 [1, 8]: > 2500 nM |
| O=c1c2ccc(Cl)cc2[nH]c2cc(OCCCCCC(F)(F)F)ccc12 [compound 21] | 0.06 | 0.07 | > 25000 |  |
| O=c1c2ccccc2[nH]c2c(OCCCCCC(F)(F)F)cccc12 [compound 27] | 446 | 515 | > 25000 |  |
| O=C1c2ccccc2Cc2ccc(O)cc21 [compound 54] |  |  |  | IC50 [1, 9]: 8300 nM |
| COc1ccc2c(=O)c(C(=O)O)c[nH]c2c1 [compound 42] |  |  |  | IC50 [1, 10]: > 2500 nM; IC50 [4, 11]: > 25000 nM |
| O=c1c2ccccc2[nH]c2ccc(O)cc12 [compound 5] | 9000 | 4400 | > 25000 |  |
| OC(c1cc(C(F)(F)F)nc2c(C(F)(F)F)cccc12)C1CCCCN1 (racemic) [compound 38] | 5.9 | 8.8 | 4800 |  |
| O=C1C=C(O)C(=O)c2ccccc21 [No. 47, 2-hydroxy-1,4-naphthoquinone, reference compound] |  |  |  | IC50 [1, 8]: ~1800 nM |
| O=c1c2ccccc2[nH]c2ccc(OCCCCCC(F)(F)F)cc12 [compound 25] | 36 | 49 | > 25000 |  |
| O=c1c2ccc(Cl)cc2[nH]c2cc(OCCCCCCCC(F)(F)F)ccc12 [compound 28] | 0.16 | 0.17 | > 25000 |  |
| COc1ccc2c(=O)c(CCCCCCCCCCC(F)(F)F)c(C)[nH]c2c1 [compound 45] |  |  |  | IC50 [1, 7]: 0.2 nM; IC50 ([2]; Table 3): 0.36 nM; IC50 [4]: > 25000 nM |
| C=CC1CN2CCC1CC2C(O)c1ccnc2ccc(OC)cc12 (centres unmarked) [compound 37] | 11 | 68 | 23000 |  |
| CC1CCC2C(C)C(=O)OC3OC4(C)CCC1C32OO4 (centres unmarked) [compound 39] | 0.65 | 0.9 | > 25000 |  |
| CCOC(=O)c1c[nH]c2cc(OC)ccc2c1=O [compound 41] |  |  |  | IC50 [1, 7]: 440 nM; IC50 [4]: > 25000 nM |
| O=C1C=C(CCCCCC(F)(F)F)C(=O)c2ccccc21 [compound 49] |  |  |  | IC50 [1, 9]: 823 nM |
| O=c1c2ccc(Cl)cc2[nH]c2cc(OCCCCCCCCCCC(F)(F)F)ccc12 [compound 30] | 0.023 | 0.025 | > 25000 |  |
| O=c1c2ccccc2[nH]c2cc(O)ccc12 [compound 6] | 2000 | 504 | > 25000 |  |
| COc1ccc2c(=O)cc[nH]c2c1 [compound 40] |  |  |  | IC50 [1, 10]: > 2500 nM; IC50 [4, 11]: > 25000 nM |
| O=c1c2ccc(OCCCCCC(F)(F)F)cc2[nH]c2cc([N+](=O)[O-])ccc12 [compound 33] | 3.2 | 5.8 | > 25000 |  |
| O=c1c2ccccc2[nH]c2cc(OCCCCC(F)(F)F)ccc12 [compound 20] | 0.5 | 0.3 | > 25000 |  |
| O=c1c2ccc(Cl)cc2[nH]c2ccc(OCCCCCBr)cc12 [compound 10] | 70 | 152 | 12000 |  |

| Compound | IC50 [1, 5] [nM] | IC50 [2, 6] [nM] | IC50 [3] [nM] | further results |
| --- | --- | --- | --- | --- |
| O=c1c2ccc(Cl)cc2[nH]c2ccc(OCCCCCC(F)(F)F)cc12 [compound 22] | 10 | 15 | > 25000 |  |
| CCN(CC)CCCC(C)Nc1ccnc2cc(Cl)ccc12 (racemic) [compound 36] | 7.8 | 102 | 3900 |  |
| O=c1c2ccc(Cl)cc2[nH]c2cc(OCCCCC(F)(F)C(F)(F)F)ccc12 [compound 23] | 0.02 | 0.02 | > 25000 |  |
| O=c1c2ccc(O)cc2[nH]c2cc(Cl)ccc12 [compound 14] | 2200 | 9200 | 14000 |  |
| O=c1c2ccc(Cl)cc2[nH]c2cc(OCCCC(F)(F)F)ccc12 [compound 17] | 1 | 1.2 | > 25000 |  |
| O=c1c2ccc(O)cc2oc2cc(OCCCCCC(F)(F)F)ccc12 [compound 11] | 46 | 40 | > 25000 |  |
| Nc1c2ccc(Cl)cc2nc2cc(OCCCCCC(F)(F)F)ccc12 [compound 32] | 2.9 | 10 | 250 |  |
| COc1ccc2c(=O)c(CCCCCC(F)(F)F)c(C)[nH]c2c1 [compound 44] |  |  |  | IC50 [1, 10]: 10.2 nM; IC50 ([2]; Plasmodium falciparum, DD2, Table 3): 12.8 nM; IC50 [4, 11]: > 25000 nM |
| O=c1c2ccc(Cl)cc2[nH]c2cc(OCCCCCCCCO)ccc12 [compound 29] | 2.2 | 3.5 | > 25000 |  |
| Cn1c2cc(Cl)ccc2c(=O)c2ccc(OCCCCC(F)(F)F)cc21 [compound 31] | 4000 | 3500 | > 25000 |  |
| Nc1ccc2c(=O)c3ccc(OCCCCCC(F)(F)F)cc3[nH]c2c1 [compound 34] |  |  | > 25000 |  |
| O=C1c2ccc(OCCCCCC(F)(F)F)cc2C(=O)c2ccc(O)cc21 [compound 15] | 27 | 54 | > 25000 |  |
| O=c1c2ccc(Cl)cc2[nH]c2cc(OCCCCCCl)ccc12 [compound 16] | 12 | 13 | > 25000 |  |
| O=C1c2ccccc2Cc2ccc(OCCCCCC(F)(F)F)cc21 [compound 55] |  |  |  | IC50 [1, 9]: 510 nM |
| O=c1c2ccc(Cl)cc2[nH]c2cc(OCCCCC(F)(F)F)ccc12 [compound 18] | 0.3 | 0.5 | > 25000 |  |
| O=c1c2ccc(O)cc2oc2cc(O)ccc12 [compound 52] |  |  |  | IC50 ([1]; Plasmodium falciparum, D6, read-out: D6 IC50, nM): > 100000 nM |
| O=c1c2ccc(Cl)cc2oc2cc(OCCCCC(F)(F)F)ccc12 [compound 19] | 16000 | 18000 | > 25000 |  |
| O=c1c2ccc(O)cc2oc2cc(OCCCCCC(F)(F)F)ccc12 [compound 53] |  |  |  | IC50 [1, 9]: 780 nM |
| COc1ccc2[nH]c3cc(Cl)ccc3c(=O)c2c1 [compound 7] | 45 | 65 | > 25000 |  |
| O=c1c2ccc(Cl)cc2[nH]c2ccc(O)cc12 [compound 8] | 190 | 260 | 24000 |  |
| O=c1c2ccc(Cl)cc2[nH]c2cc(OCCCCC(F)(C(F)(F)F)C(F)(F)F)ccc12 [compound 24] | 0.0015 |  | > 25000 |  |
| O=C1C=C(OCCCCC(F)(F)F)C(=O)c2ccccc21 [compound 48] |  |  |  | IC50 [1, 9]: 51.1 nM |
| O=c1c2ccc(O)cc2oc2cc(O)ccc12 [No. 52, 3,6-dihydroxyxanthone, reference compound] |  |  |  | IC50 ([1]; Plasmodium falciparum, D6, read-out: IC50 value of parent compound used for comparison): > 100000 nM |
| COc1ccc2nc3cc(Cl)ccc3c(N)c2c1 [compound 9] | 18 | 42 | 450 |  |
| O=c1c2ccc(O)cc2[nH]c2cc(Cl)ccc12 [No. 14, 3-hydroxy-6-chloroacridone] |  |  |  | IC50 [1, 8]: > 2200 nM |
| O=C1C=C(O)C(=O)c2ccccc21 [compound 47] |  |  |  | IC50 [1, 9]: 1800 nM |
